From paper PMC4391372 (Journal of agricultural and food chemistry, 2011)

Molecular target: T1, hTAS2R31 (Homo sapiens, UniProt P59538)
T1 sequence (P59538 1-309): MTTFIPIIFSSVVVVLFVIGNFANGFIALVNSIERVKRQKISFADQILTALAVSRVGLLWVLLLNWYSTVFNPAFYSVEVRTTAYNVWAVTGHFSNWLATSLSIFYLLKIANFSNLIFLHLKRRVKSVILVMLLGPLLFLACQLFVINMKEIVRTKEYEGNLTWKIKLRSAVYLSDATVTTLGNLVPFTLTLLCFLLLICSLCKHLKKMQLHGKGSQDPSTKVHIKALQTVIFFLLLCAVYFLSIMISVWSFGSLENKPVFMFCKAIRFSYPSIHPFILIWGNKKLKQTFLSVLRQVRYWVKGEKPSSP
Experiment: HEK-293T cell-based receptor assay

IC50 [µM]	Compound
5.5 ± 2.5	COc1cc(O)c2c(c1)O[C@H](c1ccc(O)cc1)CC2=O [compound 2, sakuranetin]
10.2 ± 5.4	COc1cc2c(c(O)c1OC)C(=O)C[C@@H](c1ccc(O)cc1)O2 [compound 9, 6-methoxysakuranetin]
11.7 ± 6	COc1cc(-c2cc(=O)c3c(O)c(OC)c(O)cc3o2)ccc1O [compound 10, jaceosidin]
